Laboratory results as given in article PMC3975428, “Dimers of G-Protein Coupled Receptors as Versatile Storage and Response Units” (International Journal of Molecular Sciences, 2014).
No end group written: not given here.

B1: human neuropeptide Y Y2 receptor expressed in CHO cells (receptor, UniProt P49146 1-381, looked up)
chain: MGPIGAEADENQTVEEMKVEQYGPQTTPRGELVPDPEPELIDSTKLIEVQVVLILAYCSIILLGVIGNSLVIHVVIKFKSMRTVTNFFIANLAVADLLVNTLCLPFTLTYTLMGEWKMGPVLCHLVPYAQGLAVQVSTITLTVIALDRHRCIVYHLESKISKRISFLIIGLAWGISALLASPLAIFREYSLIEIIPDFEIVACTEKWPGEEKSIYGTVYSLSSLLILYVLPLGIISFSYTRIWSKLKNHVSPGAANDHYHQRRQKTTKMLVCVVVVFAVSWLPLHAFQLAVDIDSQVLDLKEYKLIFTVFHIIAMCSTFANPLLYGWMNSNYRKAFLSAFRCEQRLDAIHSEVSVTFKAKKNLEVRKNSGPNDSFTEATNV
notes: neuropeptide Y receptor type 2 (Y2), human cDNA in pcDNA 3.1+; Assayed in particulates (membranes) of the cells and in digitonin/cholate lysates of them; also called hY2 receptor; CHO-Y2; source: CHO-K1, stably expressed (cDNA in pcDNA 3.1+), postnuclear particulates, solubilised with digitonin and cholate
B2: NPY(22–36) (peptide, UniProt P01303 50-64, looked up)
peptide: SALRHYINLITRQRY
notes: neuropeptide Y, residues 22-36; also called neuropeptide Y(22–36)

Experiments:
[1] = test system: 180 kDa heteropentamer (Y2 receptor dimer, G-protein trimer); assay: Nucleotide labeling / conversion of 180 kDa heteropentamer to 90 kDa Gi3α-receptor monomer; format: biochemical; details: 1–5 mM Mg^2+, micromolar GDP or GγS
Experimental: The receptors were labeled for 30 min at 25 °C in respective particulates (50 μg protein/assay), employing not more than 50 pM [^125I]-labeled agonist peptides (as stated in individual experiments). Higher molar inputs of agonist peptides would produce significant Gα activation within short exposures (e.g., [24, 53]). The basal assay buffer contained 0.2% proteinase-free bovine serum albumin, 20 mM hepes.NaOH (pH 7.4), 1 mM diisopropylfluorophosphate, 0.04% bacitracin, and 10 μg/mL each of proteinase inhibitors aprotinin, bestatin, chymostatin, leupeptin and pepstatin. Depending on experiment design, this was supplemented by 3 mM CaCl2 and 1 mM MgCl2, (buffer A) or by 1 mM Na EDTA, pH 7.4 (buffer B). The nucleotide site labeling at 200 pM [^35S]GγS was for 30 min at 28 °C after pre-activation for 30 min at 28 °C at 3 μM GDP in the basal buffer with 50 μM EDTA, 100 mM NaCl and 4 mM MgCl2, and without CaCl2 (buffer C). All subsequent operations were carried out at 0–5 °C. The assays were terminated by sedimentation for 10 min at 30,000× gmax, followed by surface wash of the pellets.
(§1) Rabbit kidney postmitochondrial particulates, rabbit piriform cortex and hypothalamic crude synaptosomes and CHO cell postnuclear particulates were prepared as described previously. After solubilization of particulates at 10 mM each of digitonin and sodium cholate in buffer A or B, the lysates were spun for 10 min at 1000× g to remove debris, and the supernatants sedimented for periods indicated in figure captions at 218,000× gmax through linear 5%–20% sucrose gradients (10 mL, made in buffer A). The gradients were divided by bottom dripping in 23 fractions of 0.45 mL. The sedimentation positions were calibrated with [^125I]-labeled bovine γ-globulin (158 kDa), human iron-saturated transferrin (75 kDa) and ovalbumin (44 kDa), and with colorized myosin (211 kDa), producing a linear relation of migration to molecular weight (R^2 > 0.99). […]

[2] = test system: 180 kDa heteropentamer and 90 kDa monomer-Gi α of Y2 receptor; assay: Stability of agonist binding of 180 kDa and 90 kDa Y2 complexes to reagents; format: biochemical, rabbit; details: for sensitivity of 180 kDa labeled material to K^+: 0.3 M K^+ (as KCl or KI)
Excerpt: Figure 6. Stability and affinity of agonist binding differs greatly for heteropentamer and monomer forms of the rabbit kidney Y2 receptor. (A) Y2 agonist attached to 180 kDa heteropentamer is recovered completely by 10% polyethyleneglycol (PEG) at 0.3 M K^+ (The data are averages of six gradients, ±1 S.E.).
The stability and affinity of agonist association with CHO-Y2 receptors could also be analyzed at the level of dimers and monomers by extraction and precipitation procedures coupled to competition binding assays (Figure 6).
The pellets were then counted in a scintillation counter.
(§2) Rabbit kidney postmitochondrial particulates, rabbit piriform cortex and hypothalamic crude synaptosomes and CHO cell postnuclear particulates were prepared as described previously. After solubilization of particulates at 10 mM each of digitonin and sodium cholate in buffer A or B, the lysates were spun for 10 min at 1000× g to remove debris, and the supernatants sedimented for periods indicated in figure captions at 218,000× gmax through linear 5%–20% sucrose gradients (10 mL, made in buffer A). The gradients were divided by bottom dripping in 23 fractions of 0.45 mL. The sedimentation positions were calibrated with [^125I]-labeled bovine γ-globulin (158 kDa), human iron-saturated transferrin (75 kDa) and ovalbumin (44 kDa), and with colorized myosin (211 kDa), producing a linear relation of migration to molecular weight (R^2 > 0.99).

[3] = test system: aggregated Y2 receptor material (rabbit kidney and CHO-Y2 particulates); assay: Release of aggregated Y2 receptor material (bottom of 5%–20% gradients); format: biochemical; details: 10 μM, preliminary experiment
Experimental: More than 30% of the Y2 binding in rabbit kidney postmitochondrial particulates, and more than 20% in the CHO-Y2 postnuclear particulates sediments to the bottom of 5%–20% sucrose gradients over 18 h at 218,000× gmax, corresponding to weight in excess of 1000 kDa. A large part of this material sediments at 30,000× gmax over 10 min, and could be considered as aggregated. […] This preliminary experiment points to potential of such procedures in quantitation of effector-associated receptors at the level of dimers and monomers. There also is a promise of gaining more insight on the size and significance of receptor oligomers incorporating more than two receptor monomers.
as §2

[4] = test system: Y2 receptor aggregates (rabbit kidney); assay: Y2 receptor aggregates, sedimentation after treatment, rabbit kidney particulates; format: biochemical; details: 15 min at 24 °C
Experimental: (§3) Figure 5. […] Particulates from rabbit kidney (A) and anterior hypothalamus (B) were incubated with 20 μM GγS or 10 μM U73122 for 15 min at 24 °C, sedimented, resuspended, labeled with 50 pM [^125I]hPYY(3–36) for 15 min at 24 °C, resedimented, lysed at 10 mM each digitonin and cholate and sedimented through a 10%–30% linear sucrose gradient for 6 h at 218,000× g and 5 °C, followed by gradient fractionation and counting. TEXT PRINTED IN THE PICTURE: (A) GγS: Bottom count: 10.8% | (A) U73122: Bottom count: 25.4% | (B) GγS: Bottom count: 8.98 % | (B) U73122: Bottom count: 17.4 %
as §2

[5] = test system: Y2 receptor aggregates (anterior hypothalamus); assay: Y2 receptor aggregates, sedimentation after treatment, rabbit anterior hypothalamus particulates; format: biochemical; details: 10 μM, 15 min at 24 °C, 10%–30% gradient 6 h at 218,000× g
Experimental: as §3
as §1, with “mL.” for “mL. The sedimentation positions were calibrated with [^125I]-labeled bovine γ-globulin (158 kDa), human iron-saturated transferrin (75 kDa) and ovalbumin (44 kDa), and with colorized myosin (211 kDa), producing a linear relation of migration to molecular weight (R^2 > 0.99).”

[6] = target: rabbit Y2 receptor, native (rabbit (endogenous in kidney cortex, hypothalamus, piriform cortex)); assay: radioligand binding; aliquots of gradient fractions of labeled rabbit kidney particulates precipitated with 10% polyethyleneglycol-8000 at 300 mM KCl or KI and 50 μg/mL bovine γ-globulin, 10 min at 0–4 °C
[7] = test system: endothelin-1 receptor; details: cited from earlier work
Excerpt: (§4) The classical view of agonist binding assumes an attachment that is readily terminated by dilution or competition by ligands of higher affinity, such as competitive antagonists. The weak agonist binding for small ligand receptors, such as catecholamine receptors, greatly diminishes analytical options. This has signally contributed to the analytical success of covalent proteinaceous tags. However, many GPCRs with peptidic agonists show agonist attachments that are stable at least at low temperatures, and slow to dissociate even at 37 °C. Such stable (“quasi-irreversible”) binding was found for ...

[8] = target: rabbit Y2 receptor, native (rabbit (endogenous in kidney cortex, hypothalamus, piriform cortex)); assay: radioligand binding; competition of PYY(3–36) with [125I]PYY(3–36), rabbit kidney particulates, entire receptor complement
[9] = target: rabbit Y2 receptor, native (rabbit (endogenous in kidney cortex, hypothalamus, piriform cortex)); assay: radioligand binding; competition of PYY(3–36), rabbit kidney particulates after extraction with 8 mM cholate at 0–5 °C (>90% dimeric residue), trypsin up to 3 μg/mL
[10] = test system: neuromedin U receptors; details: cited from earlier work
Excerpt: as §4

[11] = test system: Y2 receptor; details: cited from earlier work
Excerpt: The classical view of agonist binding assumes an attachment that is readily terminated by dilution or competition by ligands of higher affinity, such as competitive antagonists. The weak agonist binding for small ligand receptors, such as catecholamine receptors, greatly diminishes analytical options.

[12] = test system: Y1 receptor; details: cited from earlier work
Excerpt: as §4

[13] = test system: Y4 receptor; details: cited from earlier work
Excerpt: as §4

[14] = test system: human calcitonin receptor; details: cited from earlier work
Excerpt: as §4

[15] = test system: rabbit kidney Y2 receptor; assay: PYY(3–36) binding to rabbit kidney Y2 receptor (heteropentamer and monomer forms)
Experimental: The receptors were labeled for 30 min at 25 °C in respective particulates (50 μg protein/assay), employing not more than 50 pM [^125I]-labeled agonist peptides (as stated in individual experiments). […] The basal assay buffer contained 0.2% proteinase-free bovine serum albumin, 20 mM hepes.NaOH (pH 7.4), 1 mM diisopropylfluorophosphate, 0.04% bacitracin, and 10 μg/mL each of proteinase inhibitors aprotinin, bestatin, chymostatin, leupeptin and pepstatin. Depending on experiment design, this was supplemented by 3 mM CaCl2 and 1 mM MgCl2, (buffer A) or by 1 mM Na EDTA, pH 7.4 (buffer B). The nucleotide site labeling at 200 pM [^35S]GγS was for 30 min at 28 °C after pre-activation for 30 min at 28 °C at 3 μM GDP in the basal buffer with 50 μM EDTA, 100 mM NaCl and 4 mM MgCl2, and without CaCl2 (buffer C). All subsequent operations were carried out at 0–5 °C. The assays were terminated by sedimentation for 10 min at 30,000× gmax, followed by surface wash of the pellets.

[16] = target: the molecule itself; assay: sucrose density gradient centrifugation; CHO-Y2 particulates preincubated in assay buffer at 27 °C (1 h or 3 h) or in ice (3 h), labeled 20 min at 27 °C with [125I]PYY(3–36), solubilised at 10 mM each digitonin and cholate, 5%–20% sucrose gradients, 18 h at 5 °C, 218,000 x gmax
[17] = target: B1; assay: radioligand binding; competition against [125I]PYY(3–36) at the hY2 receptor; conditions not given; details: one partner purified

Nc1nc2c(ncn2[C@@H]2O[C@H](COP(=O)(O)OP(=O)(O)O)[C@@H](O)[C@H]2O)c(=O)[nH]1 [GDP]
conversion of 180 kDa heteropentamer [1]: does convert to immunoprecipitable 90 kDa Gi3α-receptor monomer

[Cl-].[K+] [KCl]
effect on Y2 agonist bound to 90 kDa monomer-Gi α ([2]; 0.3 M KCl): detached
sensitivity of 180 kDa labeled material to K^+ [2]: not sensitive

[I-].[K+] [KI]
sensitivity of 180 kDa labeled material to K^+ [2]: not sensitive

COc1ccc2c(c1)CC[C@@H]1[C@@H]2CC[C@]2(C)[C@@H](NCCCCCCN3C(=O)C=CC3=O)CC[C@@H]12 [U73122]
part of aggregated material released [3]: About a third
main form yielded from Y2 receptor aggregates ([4]; particulates from rabbit tissues (kidney and anterior hypothalamus), GγS 20 μM or U73122 10 μM): largely the heteropentamer
Bottom count ([4]; rabbit kidney, 10 μM, 10%–30% gradient 6 h at 218,000× g): 25.4%
Bottom count [5]: 17.4%

C[C@H](CCC(=O)[O-])[C@H]1CC[C@H]2[C@@H]3[C@H](O)C[C@@H]4C[C@H](O)CC[C@]4(C)[C@H]3C[C@H](O)[C@]12C.[Na+] [sodium cholate]
effect on Y2 agonist bound to 90 kDa monomer-Gi α ([2]; 8 mM cholate at 0–5 °C): detached
effect of sodium cholate on activated monomers ([2]; rabbit kidney particulates): removes activated monomers

[125I]human peptide YY(3–36) (from UniProt P10082 31-64)
percent of the 180 kDa labeled material precipitated at 10% PEG [6]: > 80%

endothelin
stability of agonist binding [7]: quasi-irreversible

human peptide YY(3–36) (from UniProt P10082 31-64)
IC50 [8]: 0.2 to 0.5 nM
IC50 [9]: 0.01 nM

neuromedin U (FRVDEEFQSPFASQSRGYFLFRPRN; ends and bridges not checked; UniProt P48645 142-166, looked up) [agonist at its receptors]
stability of agonist binding [10]: quasi-irreversible

neuropeptide Y [NPY]
stability of agonist binding [11]: quasi-irreversible
stability of agonist binding [12]: quasi-irreversible

pancreatic polypeptide
stability of agonist binding [13]: quasi-irreversible

salmon calcitonin
stability of agonist binding [14]: quasi-irreversible

trypsin
Bmax for the dimeric Y2 in the cholate residue ([15]; above 0.3 μg trypsin): increases significantly
effect on affinity of PYY(3–36) binding to dimeric residue ([15]; trypsin at up to 3 μg/mL, cholate residue): unaffected
stability of heteropentamers to trypsin ([2]; rabbit kidney particulates): considerable stability

B1
stoichiometry N [16]: 2

B2
Kd [17]: 6.2 ± 1.2 nM
